Assay results published in PubChem BioAssay (NCI).
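Interpolation was linear, between the two tested concentrations surrounding the appropriate level; five concentrations were tested over 48 hours in 96-well plates. GI50: concentration for 50% inhibition of growth. Definition used: TGI = concentration required for complete inhibition of growth.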

Key:
Assay in all cases: NCI anticancer screen, dose series, 48 h
[1] = test system: A498 renal
[2] = test system: A549 NSCLC
[3] = test system: CAKI-1 renal
[4] = test system: DU-145 prostate
[5] = test system: HL-60(TB) leukemia
[6] = test system: HS 578T breast
[7] = test system: MOLT-4 leukemia
[8] = test system: OVCAR-5 ovarian
[9] = test system: OVCAR-8 ovarian
[10] = test system: U251 CNS
[11] = test system: UO-31 renal
[12] = test system: ACHN renal
[13] = test system: BT-549 breast
[14] = test system: CCRF-CEM leukemia
[15] = test system: COLO 205 colon
[16] = test system: EKVX NSCLC
[17] = test system: HCC-2998 colon
[18] = test system: HCT-116 colon
[19] = test system: HCT-15 colon
[20] = test system: HOP-62 NSCLC
[21] = test system: HOP-92 NSCLC
[22] = test system: HT29 colon
[23] = test system: IGROV1 ovarian
[24] = test system: K-562 leukemia
[25] = test system: KM12 colon
[26] = test system: LOX IMVI melanoma
[27] = test system: M14 melanoma
[28] = test system: MALME-3M melanoma
[29] = test system: MCF7 breast
[30] = test system: MDA-MB-231 breast
[31] = test system: MDA-MB-435
[32] = test system: NCI-H226 lung
[33] = test system: NCI-H23 lung
[34] = test system: NCI-H460 lung
[35] = test system: NCI-H522 lung
[36] = test system: NCI/ADR-RES ovarian
[37] = test system: OVCAR-3 ovarian
[38] = test system: PC-3 prostate
[39] = test system: RPMI-8226 leukemia
[40] = test system: RXF 393 renal
[41] = test system: SF-268 CNS
[42] = test system: SF-295 CNS
[43] = test system: SF-539 CNS
[44] = test system: SK-MEL-2 melanoma
[45] = test system: SK-MEL-28 melanoma
[46] = test system: SK-MEL-5 melanoma
[47] = test system: SN12C renal
[48] = test system: SNB-19 CNS
[49] = test system: SNB-75 CNS
[50] = test system: SW-620 colon
[51] = test system: T-47D breast
[52] = test system: TK-10 renal
[53] = test system: UACC-257 melanoma
[54] = test system: UACC-62 melanoma

**Q.** Which results are given for `OC(c1cc2cc(Cl)c(Cl)cc2c2cc(C(F)(F)F)ccc12)C1CCCCN1` (centres undefined)?
**A.** GI50 [1]: 1.36 µM; TGI [1]: 2.69 µM; GI50 [2]: 1.68 µM; TGI [2]: 3.18 µM; GI50 [3]: 2 µM; TGI [3]: 4.32 µM; GI50 [4]: 1.94 µM; TGI [4]: 3.36 µM; GI50 [5]: 2.28 µM; TGI [5]: 4.07 µM; GI50 [6]: 1.54 µM; TGI [6]: 3.27 µM; GI50 [7]: 1.59 µM; TGI [7]: 3.32 µM; GI50 [8]: 1.61 µM; TGI [8]: 3.1 µM; GI50 [9]: 1.67 µM; TGI [9]: 3.21 µM; GI50 [10]: 1.72 µM; TGI [10]: 3.21 µM; GI50 [11]: 1.52 µM; TGI [11]: 3.16 µM

**Q.** Which results are given for `CC1OC(O[C@H]2/C=C/C=C/C=C/C=C/C=C/C=C/C=C/[C@H](C)[C@@H](O)[C@@H](C)[C@H](C)OC(=O)CC(O)CC(O)CCC(O)C(O)CC(O)C[C@]3(O)C[C@H](O)C(C(=O)O)C(C2)O3)C(O)[C@H](N)C1O` (some centres undefined)?
**A.** GI50 [1]: 12 µM; TGI [1]: 25.9 µM; GI50 [2]: 1.67 µM; TGI [2]: 3.11 µM; GI50 [12]: 1.68 µM; TGI [12]: 3.18 µM; GI50 [13]: 13.9 µM; TGI [13]: 30.4 µM; GI50 [3]: 3.16 µM; TGI [3]: 11.7 µM; TGI [14]: > 100 µM; GI50 [15]: 4.19 µM; TGI [15]: 17.2 µM; GI50 [4]: 2.8 µM; TGI [4]: 7.22 µM; GI50 [16]: 3.4 µM; TGI [16]: 11 µM; GI50 [17]: 5.36 µM; TGI [17]: 18.7 µM; GI50 [18]: 1.99 µM; TGI [18]: 4.05 µM; GI50 [19]: 12 µM; TGI [19]: 54 µM; GI50 [5]: 3.79 µM; TGI [5]: 10.9 µM; GI50 [20]: 1.57 µM; TGI [20]: 3.11 µM; GI50 [21]: 3.16 µM; TGI [21]: 15.6 µM; GI50 [6]: 2.39 µM; TGI [6]: 8.25 µM; GI50 [22]: 4.3 µM; TGI [22]: 14.7 µM; GI50 [23]: 2.31 µM; TGI [23]: 4.73 µM; GI50 [24]: 30.1 µM; TGI [24]: > 100 µM; GI50 [25]: 6.16 µM; TGI [25]: 20.2 µM; GI50 [26]: 1.79 µM; TGI [26]: 3.6 µM; GI50 [27]: 2.57 µM; TGI [27]: 5.96 µM; GI50 [28]: 1.88 µM; TGI [28]: 3.68 µM; GI50 [29]: 5.02 µM; TGI [29]: 19.7 µM; GI50 [30]: 4.24 µM; TGI [30]: 15.7 µM; GI50 [31]: 2.01 µM; TGI [31]: 3.69 µM; GI50 [7]: 2.9 µM; TGI [7]: 6.02 µM; GI50 [32]: 2 µM; TGI [32]: 4.31 µM; GI50 [33]: 2.11 µM; TGI [33]: 5.36 µM; GI50 [34]: 2.14 µM; TGI [34]: 4.84 µM; GI50 [35]: 2.58 µM; TGI [35]: 6.02 µM; GI50 [36]: 2.1 µM; TGI [36]: 5.16 µM; GI50 [37]: 2.39 µM; TGI [37]: 5.35 µM; GI50 [8]: 3.88 µM; TGI [8]: 16.8 µM; GI50 [9]: 2.9 µM; TGI [9]: 9.86 µM; GI50 [38]: 1.81 µM; TGI [38]: 3.92 µM; GI50 [39]: 16.6 µM; TGI [39]: 59 µM; GI50 [40]: 1.84 µM; TGI [40]: 3.95 µM; GI50 [41]: 2.06 µM; TGI [41]: 4.29 µM; GI50 [42]: 18.6 µM; TGI [42]: 38 µM; GI50 [43]: 2.92 µM; TGI [43]: 11.6 µM; GI50 [44]: 3.9 µM; TGI [44]: 12 µM; GI50 [45]: 2.07 µM; TGI [45]: 3.98 µM; GI50 [46]: 3.51 µM; TGI [46]: 12.8 µM; GI50 [47]: 1.58 µM; TGI [47]: 2.99 µM; GI50 [48]: 2.57 µM; TGI [48]: 6.52 µM; GI50 [49]: 25.3 µM; TGI [49]: > 100 µM; GI50 [50]: 2.58 µM; TGI [50]: 7.73 µM; GI50 [51]: 16.4 µM; TGI [51]: 90.3 µM; GI50 [52]: 2.66 µM; TGI [52]: 5.31 µM; GI50 [10]: 1.88 µM; TGI [10]: 3.79 µM; GI50 [53]: 1.75 µM; TGI [53]: 3.4 µM; GI50 [54]: 2.78 µM; TGI [54]: 7.62 µM; GI50 [11]: 1.4 µM; TGI [11]: 2.76 µM
